# Laboratory results taken from PubChem BioAssay (NCI).
# “And” between values parts separate entries of the source, which are not always exact repeats. Equal values may be shown once.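 Test compounds were applied to cells in 96-well plates for 48 hours at 5 doses. GI50 = concentration required for 50% inhibition of growth. TGI marks complete inhibition of growth.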
# What was measured:
# Test in all cases: growth of human tumour cells (NCI), 48 h
# [1] = tested on: BT-549 breast
# [2] = tested on: COLO 205 colon
# [3] = tested on: DU-145 prostate
# [4] = tested on: LOX IMVI melanoma
# [5] = tested on: MCF7 breast
# [6] = tested on: MOLT-4 leukemia
# [7] = tested on: NCI-H226 lung
# [8] = tested on: NCI-H522 lung
# [9] = tested on: OVCAR-4 ovarian
# [10] = tested on: OVCAR-8 ovarian
# [11] = tested on: RPMI-8226 leukemia
# [12] = tested on: SK-MEL-5 melanoma
# [13] = tested on: UACC-257 melanoma
smiles,measurement,setting,value
O=C(NNC(=O)c1c(Cl)c(Cl)c(Cl)c(Cl)c1-c1nc2ccccc2[nH]1)c1ccc(Cl)cc1,TGI,[1],> 100 µM
same,TGI,[2],> 100 µM
same,TGI,[3],> 100 µM
same,TGI,[4],> 100 µM
same,TGI,[5],> 100 µM
same,TGI,[6],> 100 µM
same,TGI,[7],> 100 µM
same,TGI,[8],> 100 µM
same,TGI,[9],> 100 µM
same,TGI,[10],> 100 µM
same,TGI,[11],98.5 µM
same,TGI,[12],> 100 µM
Brc1ccc(C2CC3(c4ccccc4)ON=C(c4ccccc4)N3c3ccccc3S2)cc1 (stereo unspecified),TGI,[1],> 100 µM
same,TGI,[2],> 100 µM
same,TGI,[3],> 100 µM
same,TGI,[4],> 100 µM
same,TGI,[5],> 100 µM
same,TGI,[6],> 100 µM
same,TGI,[7],> 100 µM
same,TGI,[8],> 100 µM
same,TGI,[9],> 100 µM
same,TGI,[10],> 100 µM
same,TGI,[12],> 100 µM
same,TGI,[13],> 100 µM
Cc1c(C#N)c(N)n(C2OC(CO)C(O)C(O)C2O)c(=S)c1C#N (stereo unspecified),GI50,[1],18.5 µM and > 100 µM
same,TGI,[1],68.6 µM and > 100 µM
same,TGI,[3],> 100 µM
same,TGI,[4],> 100 µM
same,TGI,[5],> 100 µM
same,TGI,[6],> 100 µM
same,TGI,[7],> 100 µM
same,TGI,[8],> 100 µM
same,TGI,[9],> 100 µM
same,TGI,[10],> 100 µM
same,TGI,[11],> 100 µM
same,TGI,[12],> 100 µM
same,TGI,[13],> 100 µM
OC[C@@H](O)[C@H](O)[C@@H](O)/C=N/Nc1ccc(Cl)nn1,TGI,[1],> 100 µM
same,TGI,[2],> 100 µM
same,TGI,[3],> 100 µM
same,TGI,[4],> 100 µM
same,TGI,[5],> 100 µM
same,TGI,[6],> 100 µM
same,TGI,[8],> 100 µM
same,TGI,[9],> 100 µM
same,TGI,[10],> 100 µM
same,TGI,[11],> 100 µM
same,TGI,[12],> 100 µM
same,TGI,[13],> 100 µM
O=C1CSC(c2cccc(Oc3ccccc3)c2)N1c1cccc(Cl)c1Cl (stereo unspecified),TGI,[1],50.4 µM
same,TGI,[2],44.1 µM
same,TGI,[3],> 100 µM
same,TGI,[4],34.3 µM
same,TGI,[5],32.8 µM
same,TGI,[6],55.7 µM
same,TGI,[7],> 100 µM
same,TGI,[8],61.1 µM
same,TGI,[9],> 100 µM
same,TGI,[10],45.9 µM
same,TGI,[12],50 µM
same,TGI,[13],61.5 µM
COc1cc(C2SCC(=O)N2NC(=O)c2ccc(NC(C)=O)cc2OC)ccc1O (stereo unspecified),TGI,[1],> 100 µM
same,TGI,[2],> 100 µM
same,TGI,[3],> 100 µM
same,TGI,[4],> 100 µM
same,TGI,[5],> 100 µM
same,TGI,[6],> 100 µM
same,TGI,[8],> 100 µM
same,TGI,[9],> 100 µM
same,TGI,[10],62.9 µM
same,TGI,[11],> 100 µM
O=C1c2cc([N+](=O)[O-])sc2C(=O)c2cc([N+](=O)[O-])sc21,TGI,[1],3.95 µM
same,TGI,[2],6.1 µM
same,TGI,[3],23.9 µM
same,TGI,[4],3.68 µM
same,TGI,[5],9.92 µM
same,TGI,[6],> 22.7 µM
same,TGI,[7],26.3 µM
same,TGI,[8],3.02 µM
same,TGI,[9],8.71 µM
same,TGI,[10],18.6 µM
same,TGI,[12],7.21 µM
same,TGI,[13],11.8 µM
CN(C)c1c(C2CC(O)C(CO)O2)c(=O)c1=O (stereo unspecified),TGI,[1],> 100 µM
same,TGI,[3],> 100 µM
same,TGI,[4],> 100 µM
same,TGI,[5],> 100 µM
same,TGI,[6],> 100 µM
same,TGI,[7],> 100 µM
same,TGI,[8],> 100 µM
same,TGI,[9],> 100 µM
same,TGI,[10],> 100 µM
same,TGI,[11],> 100 µM
same,TGI,[13],> 100 µM
O=C(N[C@@H](Cc1ccccc1)B(O)O)[C@H](Cc1cccc2ccccc12)NC(=O)N1CCOCC1,TGI,[1],0.00335 µM
same,TGI,[2],0.197 µM and 0.233 µM
same,TGI,[3],0.403 µM and 0.527 µM
same,TGI,[4],0.00343 µM
same,TGI,[5],0.352 µM
same,TGI,[6],0.00366 µM and 0.0107 µM
same,TGI,[7],0.00164 µM
same,TGI,[9],0.0301 µM and 0.204 µM
same,TGI,[10],0.122 µM
same,TGI,[11],0.00414 µM
same,TGI,[12],0.00392 µM and 0.014 µM
same,TGI,[13],0.0065 µM and 0.0397 µM
